Test results as given in publication PMC9618981, “Impact of peptide permeation enhancer on tight junctions opening cellular mechanisms” (Biochemistry and Biophysics Reports, 2022).
Ends that are not written are not given here. Peptide text beside a SMILES is read from it. * marks the point of attachment. Myristoyl = CCCCCCCCCCCCCC(=O)*

Tests used:
[1] = test system: ZO-1 expression in Caco-2 cells; assay: Immunoblot of total protein extracts from Caco-2 cells, ZO-1; assay type: cell-based, human; settings: Caco-2, 1 h, peptides 50 μM, In 10 μM, normalised to actin
Experimental: (§1) Caco-2 cells (ATCC, Manassas, VA, USA) were cultured in T75 flasks (Merck, Schaffhausen, Switzerland). The cells were incubated at 37 °C and a humidified atmosphere containing 5% of CO2. The medium containing 10% fetal bovine serum (FBS, Thermofisher, Waltham, MA, USA) was changed every 2–3 days. The Caco-2 cells were passaged every 5 days. The passage numbers were between 33 and 36.
(§2) For Western blot experiments, cells were seeded in 12-well plates (Merck, Schaffhausen, Switzerland) at a density of 50′000 cells/cm^2. For the proteomic experiments, the cells were seeded in T10 flasks (Merck, Schaffhausen, Switzerland) at the same initial seeding density. After 7 days and two washes with warm phosphate buffered saline (PBS, Thermofisher, Waltham, MA, USA), the conditions were applied for 1 h. Peptides were applied at a concentration between 20 and 100 μM. A chemical inhibitor of PKC ζ was also tested. The molecule 4f was used at a concentration of 10 μM in 0.1% DMSO as a positive control. […]
(§3) 50 μg cell extracts and p-threonine proteins were separated by SDS-polyacrylamide gel electrophoresis (4–15%) (Bio-Rad, Hercules, CA, USA) and transferred to nitrocellulose membrane. […] These primary antibodies were then recognized by anti-mouse and anti-rabbit antibodies (Li-Cor Biosciences, Lincoln, NE, USA) and detected by Odyssey® imaging system (Li-Cor Biosciences). […]

[2] = test system: Caco-2 cells; assay: Quantitative proteomic analysis (DIA LC-MS/MS) of Caco-2 cells; assay type: cell-based, human; settings: Caco-2, 1 h
Experimental: For Western blot experiments, cells were seeded in 12-well plates (Merck, Schaffhausen, Switzerland) at a density of 50′000 cells/cm^2. For the proteomic experiments, the cells were seeded in T10 flasks (Merck, Schaffhausen, Switzerland) at the same initial seeding density. After 7 days and two washes with warm phosphate buffered saline (PBS, Thermofisher, Waltham, MA, USA), the conditions were applied for 1 h. Peptides were applied at a concentration between 20 and 100 μM. A chemical inhibitor of PKC ζ was also tested. The molecule 4f was used at a concentration of 10 μM in 0.1% DMSO as a positive control. All dilutions were done in 0.9% saline solution. After incubation, cells for Western blot experiments were lysed with RIPA buffer (Cell signalling, Danvers, MA, USA) containing protease and phosphatase inhibitors (Roche, Basel, Switzerland). After centrifugation to discard cell components, the samples were stored at −20 °C. Cells for proteomic analysis were detached with trypsin, washed 3 times with PBS and kept at −80 °C until analysis. Samples for proteomic analysis were produced in triplicate for each condition.
Cell pellets were resuspended in 100 μL of 0.1% RapiGest Surfactant (Waters, Milford, MA, USA) in 50 mM ammonium bicarbonate (AB). Samples were heated for 5 min at 100 °C. Lysis was performed by sonication (6 × 30 s) at 70% amplitude and 0.5 pulse. Samples were kept 30 s on ice between each cycle of sonication. Samples were centrifuged for 10 min at 14′000×g. Protein concentration was measured by Bradford assay and 25 μg of each sample was subjected to protein digestion as follows: the sample volume was adjusted to 100 μL with 0.1% RapiGest in 50 mM AB. 2 μL of 50 mM dithioerythritol (DTE) were added and the reduction was carried out at 60 °C for 1h. Alkylation was performed by adding 2 μL of iodoacetamide 400 mM during 1 h at room temperature in the dark. Overnight digestion was performed at 37 °C with 5 μL of freshly prepared trypsin (Promega AG, Dübendorf, Switzerland) in 50 mM AB at a concentration of 0.2 μg/μL. To remove RapiGest, samples were acidified with trifluoroacetic acid (TFA), heated at 37 °C for 45 min and centrifuged 10 min at 17′000×g. Supernatants were then desalted with a C18 microspin column (Harvard Apparatus, Holliston, MA, USA) according to the manufacturer's instructions, completely dried under speed-vacuum and stored at −20 °C.
Samples were diluted at 1 μg/μL with loading buffer (5% CH3CN, 0.1% FA). Biognosys iRT peptides were added to each sample and 2 μg of peptides were injected onto the column. LC-ESI-MS/MS was performed on an Orbitrap Fusion Lumos Tribrid mass spectrometer (Thermo Scientific, San Jose, CA, USA) equipped with an Easy nLC1200 liquid chromatography system (Thermo Scientific, San Jose, CA, USA). Peptides were trapped on an Acclaim pepmap100, C18, 3 μm, 75 μm × 20 mm nano trap-column (Thermofisher) and separated on a 75 μm × 500 mm, C18 ReproSil-Pur (Dr. Maisch GmbH, Ammerbuch, Germany), 1.9 μm, 100 Å, custom-made column. The analytical separation was run for 135 min using a gradient of H2O/FA 99.9%/0.1% (solvent A) and CH3CN/H2O/FA 80.0%/19.9%/0.1% (solvent B). The gradient was run from 8% B to 28% B in 110 min, then to 42% B in 25 min, then to 95%B in 5 min with a final stay of 20 min at 95% B. Flow rate was of 250 nL/min a total run time was of 160 min. Data-Independent Acquisition (DIA) was performed with MS1 full scan at a resolution of 60,000 (FWHM) followed by 30 DIA MS2 scan with fix windows. MS1 was performed in the Orbitrap with an automatic gain control (AGC) target of 1 × 10^6, a maximum injection time of 50 ms and a scan range from 400 to 1240 m/z. DIA MS2 was performed in the Orbitrap using higher-energy collisional dissociation (HCD) at 30%. Isolation window was set to 28 m/z with an AGC target of 1 × 10^6 and a maximum injection time of 54 ms. […]

[3] = test system: occludin expression in Caco-2 cells; assay: Immunoblot of total protein extracts from Caco-2 cells, occludin; assay type: cell-based, human; settings: Caco-2, 1 h, peptides 50 μM, In 10 μM
Experimental: as §1, §2, §3

[4] = previous studies; cited from earlier work
Text: Previous studies have shown that ZIP is not specifically and competitively inhibiting PKC ζ phosphorylation of some TJ proteins (occludin and ZO-1). The structural similarities of the PS of the PKC family does explain this non-specificity. Therefore, L-R5 would also be competitive with other PKCs and would interfere with most intracellular mechanisms involving PKCs. […] Given the absence o ...

[5] = molecular target: protein kinase C zeta (PKC ζ) (not stated (only the C-terminal fragment is called human)) (UniProt Q05513); assay: MST; PKC ζ labelled by RED-Tris-NTA on its His tag, fixed (20 nM with L-R5 at 0-4000 μM; 30 nM with occludin at 0-35000 nM); ligand in serial dilution; Tris buffer pH 7.4; hydrophilic capillaries; 20%, 40% and 80% MST power
[6] = molecular target: protein kinase C zeta (PKC ζ) (not stated (only the C-terminal fragment is called human)) (UniProt Q05513); assay: MST; labelled PKC ζ fixed at 30 nM; occludin in serial dilution 0-11300 nM; L-R5 present as competitor at a fixed 1.25 mM; Tris buffer pH 7.4; hydrophilic capillaries
[7] = molecular target: T1, PKC ζ-occludin interaction (Homo sapiens, UniProt Q16625); assay: Microscale thermophoresis (MST), interaction between PKC ζ and occludin, without and with L-R5 as competitor; assay type: binding; settings: labelled PKC ζ 30 nM, occludin as ligand 0-35 μM, no competitor, Tris buffer pH 7.4, n = 2
T1 construct: purchased Eurofins pharma (PKC ζ); occludin source not clearly printed (probably RayBiotech); host or cells: Sf21 insect cells (PKC ζ)
T1 sequence (Q16625 266-522 limits assumed): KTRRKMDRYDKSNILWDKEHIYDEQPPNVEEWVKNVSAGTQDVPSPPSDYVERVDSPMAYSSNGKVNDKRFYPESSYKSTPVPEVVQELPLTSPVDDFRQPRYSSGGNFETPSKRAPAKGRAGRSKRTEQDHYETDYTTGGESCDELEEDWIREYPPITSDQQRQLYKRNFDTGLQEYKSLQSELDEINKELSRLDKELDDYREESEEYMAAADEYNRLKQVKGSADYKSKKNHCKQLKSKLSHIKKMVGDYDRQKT
Experimental: The protein construct of PKC ζ active (recombinant enzyme expressed in Sf21 insect cells) was purchased from Eurofins pharma (Dundee, United Kingdom) and the recombinant human […] was purchased from RayBiotech (Peachtree Corners, GA, USA). Fluorescent labelling of both, PKC ζ and occludin was performed following the protocol of coupling the His-tag labelling kit RED-Tris-NTA 2nd generation (Nanotemper Technologies, Munich, Germany) to their respective histidine tail. The fluorescence of the tagged proteins was then measured with the monolith NT.115 microscale thermophoresis instrument (Nanotemper Technologies, Munich, Germany). An excitation LED of 100% was set for the Cap. Scan. The predicted optimal dilution was then calculated to obtain a final fluorescence signal of 100 Raw fluorescence [counts].
Hydrophilic capillaries were used for the different tests because the samples interacted with standard capillaries. […] The different solutions were analysed by MST at 20%, 40% and 80% MST power with a 100% LED intensity. […] The results and Kd values were analysed by MO.affinity analysis 3 software (Nanotemper Technologies, Munich, Germany).
Microscale thermophoresis is a method used to quantify the affinity between two molecules (e.g., proteins) by increasing the concentration of the ligand while keeping the concentration of the target fixed. […]

[8] = molecular target: T2, occludin (UniProt Q16625 1-522); assay: MST; occludin labelled by RED-Tris-NTA on its His tag, fixed at 50 nM; L-R5 in serial dilution 0-25000 μM; Tris buffer pH 7.4; hydrophilic capillaries; 20%, 40% and 80% MST power; settings: both partners purified
T2 chain: T1 sequence (Q16625 266-522 limits assumed)

With `CC(C)(C)C1=NN(c2cccc(Cl)c2)C(c2ccc(F)c(O)c2)C1` (centres unmarked) [In, 5-(3-(tert-Butyl)-1-(3-chlorophenyl)-4,5-dihydro-1H-pyrazol-5-yl)-2-fluorophenol] the “expression of ZO-1 (Western blot)” value [1] was “no effect”, the “number of downregulated proteins versus control (log 2 (FC) < 0)” value ([2]; L-R5 50 μM or In 10 μM, n = 3) was 10 proteins and the “number of upregulated proteins versus control (log 2 (FC) ≥ 0)” value ([2]; L-R5 50 μM or In 10 μM, n = 3) was 6 proteins. For the same molecule, the “number of significantly differentially expressed proteins versus control” value ([2]; L-R5 50 μM or In 10 μM, p ≤ 0.05, n = 3) was 16 proteins, the “expression of E1A binding protein p300 (proteomics)” value ([2]; L-R5 50 μM, In 10 μM, n = 3) was “significantly decreased” and the “expression of ZO-1 (proteomics)” value ([2]; L-R5 50 μM, In 10 μM, n = 3) was “no impact”. The “expression of occludin (proteomics)” value ([2]; L-R5 50 μM, In 10 μM, n = 3) was “no impact”, the “TJ protein expression (occludin and ZO-1, Western blot, Fig. 3)” value [3] was “did not result in a significant decrease” and the “expression of occludin (Western blot)” value ([3]; normalised to actin) was “no effect”.

In the case of `CCCCCCCCCCCCCC(=O)N[C@@H](C)C(=O)N[C@@H](CCCNC(=N)N)C(=O)N[C@@H](CCCNC(=N)N)C(=O)N[C@@H](Cc1c[nH]c2ccccc12)C(=O)N[C@@H](CCCNC(=N)N)C(=O)O` [L-R5] (Myristoyl-ARRWR-OH), the in vitro cytotoxicity [4] is given as “absence of cytotoxicity”.

Work on “occludin (from UniProt Q16625 1-522) (natural protein)” yielded a Kd [5] of 617 nM and a Kd [6] of 2160 nM.

B1: occludin: tight junction protein, His-tagged recombinant, used as ligand and as labelled target in MST (protein, UniProt Q16625 1-522, looked up)
Occludin: MSSRPLESPPPYRPDEFKPNHYAPSNDIYGGEMHVRPMLSQPAYSFYPEDEILHFYKWTSPPGVIRILSMLIIVMCIAIFACVASTLAWDRGYGTSLLGGSVGYPYGGSGFGSYGSGYGYGYGYGYGYGGYTDPRAAKGFMLAMAAFCFIAALVIFVTSVIRSEMSRTRRYYLSVIIVSAILGIMVFIATIVYIMGVNPTAQSSGSLYGSQIYALCNQFYTPAATGLYVDQYLYHYCVVDPQEAIAIVLGFMIIVAFALIIFFAVKTRRKMDRYDKSNILWDKEHIYDEQPPNVEEWVKNVSAGTQDVPSPPSDYVERVDSPMAYSSNGKVNDKRFYPESSYKSTPVPEVVQELPLTSPVDDFRQPRYSSGGNFETPSKRAPAKGRAGRSKRTEQDHYETDYTTGGESCDELEEDWIREYPPITSDQQRQLYKRNFDTGLQEYKSLQSELDEINKELSRLDKELDDYREESEEYMAAADEYNRLKQVKGSADYKSKKNHCKQLKSKLSHIKKMVGDYDRQKT
modifications: His tag
notes: tight junction protein, His-tagged recombinant, used as ligand and as labelled target in MST
B1 gave a Kd [7] of 617 nM.

B2: L-R5 (myr-ARRWR), myristoylated pentapeptide (peptide)
peptide: Myristoyl-ARRWR
notes: also called L-R5 peptide; source: synthetic peptide, obtained from Bachem AG
Work on B2 yielded a Kd [8] of 606000 nM.
